According to patent publication US11484029B2, “Method for controlling building-inhabiting pest and composition for controlling building-inhabiting pest” (priority 2017, dated 2022):

Legend:
[1] = tested on: German cockroach (Blattella germanica); test: Drug efficacy test, topical application (50% lethal dose); assay type: in vivo; conditions: for 50% lethal dose: female adult, topical application, mortality six days later
Description: (§1) Test drug: a compound represented by Formula (2)
(§2) Test insect: Watarida colony (susceptible strain) of German cockroach (Blattella germanica); Hamamatsu-cho colony (resistant strain) of German cockroach (Blattella germanica); Teikyo University colony (susceptible strain) of bed bug (Cimex lectularius); and Chiba colony (resistant strain) of bed bug (Cimex lectularius),
(§3) Insecticidal test: An acetone solution of a compound represented by Formula (2) was applied to the chest of a target insect female adult by using a topical application device. The mortality was examined six days later for the German cockroach and three days later for the bed bug, and each 50% lethal dose was determined. Further, the resistance ratio was calculated by the following equation. Resistance ratio=50% lethal dose of resistant strain/50% lethal dose of susceptible strain

[2] = tested on: bed bug (Cimex lectularius); test: as above; assay type: in vivo; conditions: for 50% lethal dose: female adult, topical application, mortality three days later
Description: as §1, §2, §3

[3] = tested on: Watarida colony (susceptible strain) of German cockroach (Blattella germanica); test: Heat volatilization test; assay type: in vivo; conditions: 1 g of sample heated at 300° C., after 15 hours
Method: Sample: a compound represented by Formula (2)
Test insect: Watarida colony (susceptible strain) of German cockroach (Blattella germanica)
After 15 hours, examination of life or death was performed on the tested cockroaches, and the fatality rate was calculated.

[4] = tested on: Denken colony (susceptible strain) of German cockroach (Blattella germanica); test: Repellency test (treated vs non-treated shelter); assay type: in vivo; conditions: 0.3 μg/cm^2, after 7 days
Method: Sample: a compound represented by Formula (2), and etofenprox (control agent)
Test insect: Denken colony (susceptible strain) of German cockroach (Blattella germanica)
Test method: A test compound diluted with acetone was treated and dried on a glass disc having a diameter of 12 cm so as to be 0.3 μg/cm^2. A pet cup having 6 cm in inner diameter×0.5 cm in height was cut so as to have an entrance, and the pet cup was turned over and placed on the glass disc to make a shelter. A non-treated shelter and a drug-treated shelter were placed in the center of an acrylic box having 30 cm×15 cm, well water and rat feed were added as food, and 15 males and 15 females of German cockroach were released. After 7 days, the number of surviving insects, the number of dead insects, the number of agonizing insects, and the habitat were examined. Further, a KD (knockdown) rate and a repellency rate were calculated by the following equations. KD rate (%)=(the number of dead insects+the number of agonizing insects)/the number of released insects×100 Repellency rate (%)=(1−the number of cockroaches in treated area/(the number of cockroaches in treated area+the number of cockroaches in non-treated area)×100

[5] = tested on: Denken German cockroach; test: Forced contact with treated glass disc; assay type: in vivo, Blattella germanica; conditions: forcibly brought into contact with glass disc treated at 0.3 μg/cm^2, within 48 hours
Method: The Denken German cockroach had 100% knockdown within 48 hours when forcibly brought into contact with a glass disc that had been treated with the compound of Formula (2) and etofenprox so as to have a concentration of 0.3 μg/cm^2.

Structure (SMILES) | repellent effect (conclusion in words) [4] | Non-treated shelter Number of agonizing insects ([4]; Total (30 released)) | Non-treated shelter Number of dead insects ([4]; Total (30 released)) | Non-treated shelter Number of surviving insects ([4]; Total (30 released)) | Outside the area Number of agonizing insects ([4]; Total (30 released)) | Outside the area Number of dead insects ([4]; Total (30 released)) | Outside the area Number of surviving insects ([4]; Total (30 released)) | Treated shelter Number of agonizing insects ([4]; Total (30 released)) | Treated shelter Number of dead insects ([4]; Total (30 released)) | Treated shelter Number of surviving insects ([4]; Total (30 released)) | KD rate ([4]; Total) [%] | Non-treated shelter Number of agonizing insects ([4]; female (15 released)) | Non-treated shelter Number of dead insects ([4]; female (15 released)) | Non-treated shelter Number of surviving insects ([4]; female (15 released)) | Outside the area Number of agonizing insects ([4]; female (15 released)) | Outside the area Number of dead insects ([4]; female (15 released)) | Outside the area Number of surviving insects ([4]; female (15 released)) | Treated shelter Number of agonizing insects ([4]; female (15 released)) | Treated shelter Number of dead insects ([4]; female (15 released)) | Treated shelter Number of surviving insects ([4]; female (15 released)) | further results
CN(C(=O)c1ccccc1)c1cccc(C(=O)Nc2c(Br)cc(C(F)(C(F)(F)F)C(F)(F)F)cc2C(F)(F)F)c1F [Compound represented by Formula (2), 2-fluoro-3-(N-methylbenzamide)-N-(2-bromo-6-trifluoromethyl-4-(heptafluoropropane-2-yl)phenyl)benzamide] | has no repellent effect | 0 | 0 | 0 | 3 | 27 | 0 | 0 | 0 | 0 | 100 | 0 | 0 | 0 | 2 | 13 | 0 | 0 | 0 | 0 | Resistance ratio ([1]; 50% lethal dose of resistant strain (Hamamatsu-cho)/susceptible strain (Watarida)): 1.9; 50% lethal dose ([1]; Hamamatsu-cho colony (resistant strain)): 21.5 ng/insect; 50% lethal dose ([1]; Watarida colony (susceptible strain)): 11.2 ng/insect; Resistance ratio ([2]; 50% lethal dose of resistant strain (Chiba)/susceptible strain (Teikyo University)): 11.4; 50% lethal dose ([2]; Chiba colony (resistant strain)): 14.8 ng/insect; 50% lethal dose ([2]; Teikyo University colony (susceptible strain)): 1.3 ng/insect; fatality rate ([3]; inside the slit box): 100%; fatality rate ([3]; outside the slit box): 100%; KD rate ([4]; female): 100%; Non-treated shelter Number of agonizing insects ([4]; male (15 released)): 0; Non-treated shelter Number of dead insects ([4]; male (15 released)): 0; Non-treated shelter Number of surviving insects ([4]; male (15 released)): 0; Outside the area Number of agonizing insects ([4]; male (15 released)): 1; Outside the area Number of dead insects ([4]; male (15 released)): 14; Outside the area Number of surviving insects ([4]; male (15 released)): 0; Treated shelter Number of agonizing insects ([4]; male (15 released)): 0; Treated shelter Number of dead insects ([4]; male (15 released)): 0; Treated shelter Number of surviving insects ([4]; male (15 released)): 0; KD rate ([4]; male): 100%; knockdown [5]: 100%
CCOc1ccc(C(C)(C)COCc2cccc(Oc3ccccc3)c2)cc1 [Etofenprox, etofenprox] | has a repellent effect | 0 | 0 | 29 | 0 | 1 | 0 | 0 | 0 | 0 | 3 | 0 | 0 | 15 | 0 | 0 | 0 | 0 | 0 | 0 | Resistance ratio ([2]; etofenprox to bed bugs, strains not stated): ≥ 10000; Repellency rate ([4]; Total): 100%; KD rate ([4]; female): 0%; Repellency rate ([4]; female): 100%; Non-treated shelter Number of agonizing insects ([4]; male (15 released)): 0; Non-treated shelter Number of dead insects ([4]; male (15 released)): 0; Non-treated shelter Number of surviving insects ([4]; male (15 released)): 14; Outside the area Number of agonizing insects ([4]; male (15 released)): 0; Outside the area Number of dead insects ([4]; male (15 released)): 1; Outside the area Number of surviving insects ([4]; male (15 released)): 0; Treated shelter Number of agonizing insects ([4]; male (15 released)): 0; Treated shelter Number of dead insects ([4]; male (15 released)): 0; Treated shelter Number of surviving insects ([4]; male (15 released)): 0; KD rate ([4]; male): 7%; Repellency rate ([4]; male): 100%; knockdown [5]: 100%
